The conditions of data set [1]: 20° C. and 1 atm; cited from earlier work.
Data set [2] deals with human nasal epithelial cell line. The experiment in a line: Gene expression by quantitative real-time PCR in nasal epithelial cells. Format: cell-based. As to conditions: 1 hour. On the procedure: The fold change was calculated based on normalisation to the expression of the endogenous R-actin housekeeping gene. […] The dotted line for y=0 represents the untreated control group to which gene expression in the treatment groups were normalised and compared using an unpaired two tailed T test. *p≤0.05, ** […], *** p≤0.001, **** p≤0.0001; A human nasal epithelial cell line was used to investigate the immediate effect of SurgihoneyRO (also known as Surgihoney) on the integrity and function of the epithelium. In addition, a human mast cell line was used as a representative leukocyte to investigate immunological responses to SurgihoneyRO. Mast cells were selected because of their function as sentinel cells, being located just underneath the epithelium in tissues. Mast cells have close contact to the external environment, for example being found in the nasal mucosa, where they are ideally placed to participate in the early recognition of pathogens—by acting as immune effectors and modulatory cells with an essential role in linking innate and adaptive immunity in the host's defence against pathogens such as bacteria. […] In this case, we treated cells with an appropriate concentration range of pure hydrogen peroxide, from 0-400 uM.
(In qPCR the cycle at which signal appears reflects the starting amount.)

The test system of data set [3] is human mast cell line (HMC-1). The experiment in a line: Gene expression by quantitative real-time PCR in mast cells. Format: cell-based. As to conditions: 1 hour. On the procedure:
Gene-expression profiles for Th17 related cytokines were analysed in HMC-1 treated with 10 g/L or 100 g/L of SurgihoneyRO for 5 minutes, 1 hour and 2 hours using quantitative real-time PCR. The fold change was calculated based on normalisation to the expression of the endogenous R-actin housekeeping gene. […] The dotted line for y=0 represents the untreated control group to which gene expression in the treatment groups were normalised and compared using an unpaired two tailed T test. *p≤0.05, ** […], *** p≤0.001, **** p≤0.0001;
A human nasal epithelial cell line was used to investigate the immediate effect of SurgihoneyRO (also known as Surgihoney) on the integrity and function of the epithelium. In addition, a human mast cell line was used as a representative leukocyte to investigate immunological responses to SurgihoneyRO. Mast cells were selected because of their function as sentinel cells, being located just underneath the epithelium in tissues.
We then studied the response of the mast cell line (HMC-1) to SurgihoneyRO treatment.
In this case, we treated cells with an appropriate concentration range of pure hydrogen peroxide, from 0-400 uM.

Data set [4] has as its system 48 h in vitro NTHi biofilms. The experiment in a line: NTHi biofilm assay (cfu enumeration). Particulars: 300/60 μg·ml; 2 hours. Format: cell-based, non-typeable Haemophilus influenza. On the procedure:
Bacterial strains used in this study were isolated from nasopharyngeal swabs of children aged 4 years. NTHi was sub-cultured from frozen stocks onto Colombia agar with chocolated horse blood (Oxoid, UK) and incubated for 18 h at 37° C. and 5% CO2, following which colonies were resuspended in Brain Heart Infusion (BHI) broth supplemented with 10 μg/ml Hemin and 2 μg/ml NAD, and grown to mid-exponential phase for experiments. Pseudomonas aeruginosa PA01 and a clinical methicillin resistant Staphylococcus aureus isolate were subcultured onto Colombia blood agar plates (Oxoid, UK) and grown in non-supplemented BHI. […]
Mid-exponential planktonic cultures were used to inoculate individual wells of untreated 6-well polystyrene plates (˜1.0×10^8 planktonic bacteria per well; Corning Incorporated, USA). Cultures were incubated at 37° C. and 5% CO2 for 48 h, replacing spent media with fresh supplemented BHI (NTHi) at 24 h. Prior to treatment spent media was removed and biofilms washed twice with Hanks' balanced salt solution (HBSS; Gibco, UK). Biofilms were treated with SurgihoneyRO™ or Acacia (both prepared in HBSS) at final concentrations of 7 to 213 g/L. To assess the effect of pH biofilms were treated with HBSS adjusted to pH6.3 (the pH of 71 g/L SurgihoneyRO™ in HBSS). For adjuvant assays biofilms were treated with 300 μg/mL amoxicillin and 60 μg/mL clavulanic acid (Co-amoxiclav). […]

With `O=C(CO)[C@@H](O)[C@H](O)[C@H](O)CO` [Fructose], the solubility result in data set [1] is “about 375 g/100 g water”.

Turning to `OO` [hydrogen peroxide], in data set [2] (40 μM), the “IL22 expression, fold change” value was determined as 0.90 fold and the “IL23R expression, fold change” value was 0.45 fold. For the same compound, in data set [2] (200 μM), the “IL22 expression, fold change” value was determined as 1.42 fold and the “IL23R expression, fold change” value is listed as 1.20 fold. Moreover, in data set [2] (400 μM), the “GATA3 expression, fold increase” value is 0.92 fold; the “IL10 expression, fold change” value is given as 4.63 fold; the “IL22 expression, fold change” value was found to be 4.55 fold; the “IL23R expression, fold change” value is recorded as 1.87 fold. For the same compound, in data set [2] (400 μM), the “MMP9 expression, fold change” value was determined as 1.47 fold and the “RORγC expression, mean increase” value was 14.57 fold. In data set [3] (40 μM), the “IL22 expression, fold change” value is 0.60 fold and the “IL23R expression, fold change” value is reported as 0.47 fold. Also, in data set [3] (200 μM), the “IL22 expression, fold change” value was found to be 1.25 fold; the “IL23R expression, fold change” value is reported as 0.58 fold; the “MMP7 expression, fold increase” value worked out at 3.07 fold. In data set [3] (400 μM), the “IL22 expression, fold change” value is given as 1.81 fold; the “IL23R expression, fold change” value is given as 1.05 fold; the “MMP7 expression, fold increase” value stood at 3.31 fold; the “RORγC expression, mean increase” value is 2.83 fold.

In the case of co-amoxiclav, the “effect on biofilm viability” value in data set [4] is “no effect”.

The record behind these values is patent US20200030347A1, “ANTIMICROBIAL COMPOSITIONS” (Matoke Holdings Limited, priority 2016, published 2020).
